pIC50: −log10 of the molar value. Converted amounts (≈) assume the structure as drawn.
Experiments:
Staphylococcus aureus = experiment: Antibacterial activity against Staphylococcus aureus ATCC 11632 assessed as reduction in bacterial growth; format: functional
[1] = system: Staphylococcus epidermidis; experiment: Antibacterial activity against Staphylococcus epidermidis ATCC 12228 assessed as reduction in bacterial growth; format: functional
Escherichia coli = experiment: Antibacterial activity against Escherichia coli ATCC 25922 assessed as reduction in bacterial growth; format: functional
Pseudomonas aeruginosa = experiment: Antibacterial activity against Pseudomonas aeruginosa ATCC […] assessed as reduction in bacterial growth; format: functional
Klebsiella pneumoniae = experiment: Antibacterial activity against Klebsiella pneumoniae ATCC 4352 assessed as reduction in bacterial growth; format: functional
Salmonella typhimurium = experiment: Antibacterial activity against Salmonella typhimurium ATCC 14028 assessed as reduction in bacterial growth; format: functional, Salmonella enterica subsp. enterica serovar Typhimurium; conditions: Salmonella enterica
Aspergillus niger = experiment: Antifungal activity against Aspergillus niger ATCC 439; format: functional
Candida albicans = experiment: Antifungal activity against Candida albicans ATCC 7754; format: functional
Saccharomyces cerevisiae = experiment: Antifungal activity against Saccharomyces cerevisiae SH 20; format: functional
Bacillus subtilis = experiment: Antibacterial activity against Bacillus subtilis ATCC 11774 assessed as reduction in bacterial growth; format: functional
Aspergillus flavus = experiment: Antifungal activity against Aspergillus flavus ATCC 204304; format: functional
PC-3 = experiment: Cytotoxicity against human PC-3 cells incubated for 3 days by MTT assay; format: functional, cell-based; conditions: PC-3, 72 h
MDA-MB-231 = experiment: Cytotoxicity against human MDA-MB-231 cells incubated for 3 days by MTT assay; format: functional, cell-based; conditions: MDA-MB-231, 72 h
[2] = system: Mycobacterium tuberculosis; experiment: Antimycobacterial activity against Mycobacterium tuberculosis H37Ra ATCC 25177 assessed as growth inhibition incubated for 7 days measured after 48 hrs treatment with resazurin by alamarblue assay; format: functional; conditions: H37Ra ATCC 25177, 216 h, time 9 day
[3] = system: Mycobacterium tuberculosis; experiment: Antimycobacterial activity against Mycobacterium tuberculosis H37Ra ATCC 25177 assessed as bacterial killing incubated for 4 weeks by CLSI standard plate count method; format: functional; conditions: H37Ra ATCC 25177, 672 h
Rhodesain = Rhodesain (Trypanosoma brucei rhodesiense, UniProt Q95PM0); experiment: Inhibition of Trypanosoma brucei rhodesiense rhodesain using fluorogenic substrate Z-Phe-Arg-aminomethylcoumarin as substrate by fluorescence assay
Rhodesain, sequence (Q95PM0 whole entry): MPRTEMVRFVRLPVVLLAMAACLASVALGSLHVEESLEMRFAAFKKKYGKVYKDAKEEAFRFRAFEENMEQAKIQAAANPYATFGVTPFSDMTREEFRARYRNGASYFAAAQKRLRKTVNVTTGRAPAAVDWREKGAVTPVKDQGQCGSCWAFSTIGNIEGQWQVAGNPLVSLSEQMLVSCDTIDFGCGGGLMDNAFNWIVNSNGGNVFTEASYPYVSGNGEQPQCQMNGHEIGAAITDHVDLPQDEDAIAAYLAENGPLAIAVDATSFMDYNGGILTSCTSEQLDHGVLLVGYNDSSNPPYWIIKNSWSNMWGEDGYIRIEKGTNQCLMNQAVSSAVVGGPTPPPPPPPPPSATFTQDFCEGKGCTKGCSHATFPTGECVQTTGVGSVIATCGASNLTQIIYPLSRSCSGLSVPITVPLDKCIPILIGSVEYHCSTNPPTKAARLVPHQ

SMILES	MIC (Staphylococcus aureus)	MIC [1]	MIC (Escherichia coli)	MIC (Pseudomonas aeruginosa)	MIC (Klebsiella pneumoniae)	MIC (Salmonella typhimurium)	MIC (Aspergillus niger)	MIC (Candida albicans)	MIC (Saccharomyces cerevisiae)	MIC (Bacillus subtilis)	MIC (Aspergillus flavus)	pIC50 (PC-3)	pIC50 (MDA-MB-231)	MIC [2]	MBC [3]	pIC50 (Rhodesain)
CC(=O)OC[C@H]1O[C@@H](NC(=S)N/N=C(\C)c2cc3cc(C)ccc3oc2=O)[C@H](OC(C)=O)[C@@H](OC(C)=O)[C@@H]1OC(C)=O	12.5 µM (≈ 7.57 µg/mL)	50 µM (≈ 30.3 µg/mL)	50 µM (≈ 30.3 µg/mL)	12.5 µM (≈ 7.57 µg/mL)	100 µM (≈ 60.6 µg/mL)	25 µM (≈ 15.1 µg/mL)	1.56 µM (≈ 0.945 µg/mL)	3.12 µM (≈ 1.89 µg/mL)	25 µM (≈ 15.1 µg/mL)	–	–	–	–	–	–	–
COc1cccc2cc(/C(C)=N/NC(=S)N[C@@H]3O[C@H](COC(C)=O)[C@@H](OC(C)=O)[C@H](OC(C)=O)[C@H]3OC(C)=O)c(=O)oc12	50 µM (≈ 31.1 µg/mL)	3.12 µM (≈ 1.94 µg/mL)	1.56 µM (≈ 0.97 µg/mL)	–	1.56 µM (≈ 0.97 µg/mL)	–	6.25 µM (≈ 3.89 µg/mL)	25 µM (≈ 15.5 µg/mL)	50 µM (≈ 31.1 µg/mL)	50 µM (≈ 31.1 µg/mL)	6.25 µM (≈ 3.89 µg/mL)	–	–	–	–	–
CC(=O)OC[C@H]1O[C@@H](NC(=S)N/N=C(\C)c2c(C)c3ccc(O)cc3oc2=O)[C@H](OC(C)=O)[C@@H](OC(C)=O)[C@@H]1OC(C)=O	0.78 µM (≈ 0.485 µg/mL)	1.56 µM (≈ 0.97 µg/mL)	100 µM (≈ 62.2 µg/mL)	12.5 µM (≈ 7.77 µg/mL)	100 µM (≈ 62.2 µg/mL)	3.12 µM (≈ 1.94 µg/mL)	3.12 µM (≈ 1.94 µg/mL)	> 100 µM	0.78 µM (≈ 0.485 µg/mL)	100 µM (≈ 62.2 µg/mL)	1.56 µM (≈ 0.97 µg/mL)	–	–	–	–	–
CC(=O)OC[C@H]1O[C@@H](NC(=S)N/N=C(\C)c2cc3ccc(C)cc3oc2=O)[C@H](OC(C)=O)[C@@H](OC(C)=O)[C@@H]1OC(C)=O	1.56 µM (≈ 0.945 µg/mL)	–	25 µM (≈ 15.1 µg/mL)	25 µM (≈ 15.1 µg/mL)	25 µM (≈ 15.1 µg/mL)	–	25 µM (≈ 15.1 µg/mL)	3.12 µM (≈ 1.89 µg/mL)	> 100 µM	100 µM (≈ 60.6 µg/mL)	> 100 µM	–	–	–	–	–
CC(=O)OC[C@H]1O[C@@H](NC(=S)N/N=C(\C)c2c(C)c3ccccc3oc2=O)[C@H](OC(C)=O)[C@@H](OC(C)=O)[C@@H]1OC(C)=O	25 µM (≈ 15.1 µg/mL)	100 µM (≈ 60.6 µg/mL)	–	–	50 µM (≈ 30.3 µg/mL)	–	12.5 µM (≈ 7.57 µg/mL)	12.5 µM (≈ 7.57 µg/mL)	12.5 µM (≈ 7.57 µg/mL)	> 100 µM	25 µM (≈ 15.1 µg/mL)	–	–	–	–	–
C/C(=N\NC(=S)NN[C@@H]1O[C@H](CO)[C@@H](O)[C@H](O)[C@H]1O)c1ccccn1	–	–	–	–	–	–	–	–	–	–	–	5.55	5.80	–	–	–
CC(=O)OC[C@H]1O[C@@H](NC(=S)N/N=C(\C)c2cc3cccc([N+](=O)[O-])c3oc2=O)[C@H](OC(C)=O)[C@@H](OC(C)=O)[C@@H]1OC(C)=O	0.78 µM (≈ 0.497 µg/mL)	12.5 µM (≈ 7.96 µg/mL)	25 µM (≈ 15.9 µg/mL)	–	12.5 µM (≈ 7.96 µg/mL)	> 100 µM	3.12 µM (≈ 1.99 µg/mL)	0.78 µM (≈ 0.497 µg/mL)	12.5 µM (≈ 7.96 µg/mL)	12.5 µM (≈ 7.96 µg/mL)	12.5 µM (≈ 7.96 µg/mL)	–	–	–	–	–
CC(=O)OC[C@H]1O[C@@H](NC(=S)N/N=C(\C)c2cc3cc(Cl)ccc3oc2=O)[C@H](OC(C)=O)[C@@H](OC(C)=O)[C@@H]1OC(C)=O	> 100 µM	> 100 µM	25 µM (≈ 15.7 µg/mL)	3.12 µM (≈ 1.96 µg/mL)	–	50 µM (≈ 31.3 µg/mL)	100 µM (≈ 62.6 µg/mL)	1.56 µM (≈ 0.977 µg/mL)	50 µM (≈ 31.3 µg/mL)	–	12.5 µM (≈ 7.83 µg/mL)	–	–	–	–	–
CC(=O)OC[C@H]1O[C@@H](NC(=S)N/N=C(\C)c2cc3cc(Br)ccc3oc2=O)[C@H](OC(C)=O)[C@@H](OC(C)=O)[C@@H]1OC(C)=O	100 µM (≈ 67 µg/mL)	3.12 µM (≈ 2.1 µg/mL)	3.12 µM (≈ 2.1 µg/mL)	3.12 µM (≈ 2.1 µg/mL)	25 µM (≈ 16.8 µg/mL)	25 µM (≈ 16.8 µg/mL)	–	50 µM (≈ 33.5 µg/mL)	25 µM (≈ 16.8 µg/mL)	–	6.25 µM (≈ 4.19 µg/mL)	–	–	–	–	–
CC(=O)OC[C@H]1O[C@@H](NC(=S)N/N=C(\C)c2cc3ccccc3oc2=O)[C@H](OC(C)=O)[C@@H](OC(C)=O)[C@@H]1OC(C)=O	–	12.5 µM (≈ 7.39 µg/mL)	50 µM (≈ 29.6 µg/mL)	50 µM (≈ 29.6 µg/mL)	100 µM (≈ 59.2 µg/mL)	100 µM (≈ 59.2 µg/mL)	> 100 µM	100 µM (≈ 59.2 µg/mL)	50 µM (≈ 29.6 µg/mL)	> 100 µM	25 µM (≈ 14.8 µg/mL)	–	–	–	–	–
CC(=O)OC[C@H]1O[C@@H](NC(=S)N/N=C(\C)c2cc3cc([N+](=O)[O-])ccc3oc2=O)[C@H](OC(C)=O)[C@@H](OC(C)=O)[C@@H]1OC(C)=O	12.5 µM (≈ 7.96 µg/mL)	12.5 µM (≈ 7.96 µg/mL)	3.12 µM (≈ 1.99 µg/mL)	1.56 µM (≈ 0.993 µg/mL)	50 µM (≈ 31.8 µg/mL)	100 µM (≈ 63.7 µg/mL)	12.5 µM (≈ 7.96 µg/mL)	25 µM (≈ 15.9 µg/mL)	25 µM (≈ 15.9 µg/mL)	> 100 µM	100 µM (≈ 63.7 µg/mL)	–	–	–	–	–
NC(=S)N/N=C/c1ccc(OC(=O)CC2SC(=O)NC2=O)cc1 (centres undefined)	–	–	–	–	–	–	–	–	–	–	–	–	–	0.031 µg/mL (≈ 0.088 µM)	0.063 µg/mL (≈ 0.179 µM)	–
COc1cc(C/C=N/NC(N)=S)ccc1O[C@@H]1O[C@H](COC(C)=O)[C@H](OC(C)=O)[C@H](OC(C)=O)[C@H]1OC(C)=O	–	–	–	–	–	–	–	–	–	–	–	–	–	–	–	5.92
O=C(O)c1cn(C2CC2)c2cc(N3CCNCC3)c(F)cc2c1=O [CIPROFLOXACIN]	3.12 µM (≈ 1.04 µg/mL)	3.12 µM (≈ 1.04 µg/mL)	1.56 µM (≈ 0.517 µg/mL)	1.56 µM (≈ 0.517 µg/mL)	1.56 µM (≈ 0.517 µg/mL)	1.56 µM (≈ 0.517 µg/mL)	–	–	–	3.12 µM (≈ 1.04 µg/mL)	–	–	–	–	–	–
OC(Cn1cncn1)(Cn1cncn1)c1ccc(F)cc1F [FLUCONAZOLE]	–	–	–	–	–	–	1.56 µM (≈ 0.478 µg/mL)	0.78 µM (≈ 0.239 µg/mL)	0.78 µM (≈ 0.239 µg/mL)	–	0.78 µM (≈ 0.239 µg/mL)	–	–	–	–	–
O=c1[nH]cc(F)c(=O)[nH]1 [FLUOROURACIL]	–	–	–	–	–	–	–	–	–	–	–	5.54	5.32	–	–	–
Clc1ccc(COC(Cn2ccnc2)c2ccc(Cl)cc2Cl)c(Cl)c1 (centres undefined) [MICONAZOLE]	–	–	–	–	–	–	1.56 µM (≈ 0.649 µg/mL)	3.12 µM (≈ 1.3 µg/mL)	3.12 µM (≈ 1.3 µg/mL)	–	1.56 µM (≈ 0.649 µg/mL)	–	–	–	–	–
CN[C@H](CC(C)C)C(=O)N[C@H]1C(=O)N[C@@H](CC(N)=O)C(=O)N[C@H]2C(=O)N[C@H]3C(=O)N[C@H](C(=O)N[C@H](C(=O)O)c4cc(O)cc(O)c4-c4cc3ccc4O)[C@H](O)c3ccc(c(Cl)c3)Oc3cc2cc(c3O[C@@H]2O[C@H](CO)[C@@H](O)[C@H](O)[C@H]2O[C@H]2C[C@](C)(N)[C@H](O)[C@H](C)O2)Oc2ccc(cc2Cl)[C@H]1O [VANCOMYCIN]	3.12 µM (≈ 4.53 µg/mL)	–	–	–	–	–	–	–	–	1.56 µM (≈ 2.26 µg/mL)	–	–	–	–	–	–

— ChEMBL document CHEMBL4699627, “Synthesis and biological screening of thiosemicarbazones of substituted 3-acetylcoumarins having d-glucose moiety” (Bioorg Med Chem Lett, 2020)
